This test has as its target T1, RPA:RAD52 protein-protein interaction (Homo sapiens, UniProt P43351).
T1 construct: made in house
T1 sequence (P43351 1-418): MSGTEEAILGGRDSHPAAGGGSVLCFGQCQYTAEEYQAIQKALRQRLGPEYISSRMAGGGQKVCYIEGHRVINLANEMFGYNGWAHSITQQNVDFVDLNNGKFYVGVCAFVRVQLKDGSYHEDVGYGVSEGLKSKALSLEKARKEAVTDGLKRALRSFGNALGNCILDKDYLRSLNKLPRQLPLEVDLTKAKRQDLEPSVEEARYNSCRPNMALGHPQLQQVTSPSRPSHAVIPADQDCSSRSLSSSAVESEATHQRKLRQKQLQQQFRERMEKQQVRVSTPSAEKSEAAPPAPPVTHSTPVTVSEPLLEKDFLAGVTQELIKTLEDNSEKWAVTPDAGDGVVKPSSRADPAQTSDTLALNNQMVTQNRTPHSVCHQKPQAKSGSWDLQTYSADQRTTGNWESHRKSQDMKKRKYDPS
The test can be described thus: FluorIA (Fluorescence-based protein-protein Interaction Assay), GFP-RAD52 binding to plate-coated RPA. Particulars: polynomial curve fitting; 15 dose concentrations 0.03–500 μM, triplicate; RAD52(1–303) positive control; read-out: EC50 in FluorIA (inhibition of RPA:RAD52 PPI). The procedure:
A newly developed fluorescence-based assay for detecting protein-protein interactions, FluorIA was used to identify SMIs of RPA:RAD52 PPI. The detailed FluorIA protocol is published elsewhere. Briefly, 384-well plates (Thermo Fisher Scientific, #460518) were coated with purified RPA. Then compounds or controls were added and incubated with freshly prepared GFP-RAD52. RAD52(1–303) without GFP-tag and buffer (including DMSO) only were used as controls. Then the relative fluorescence (RFU) was measured using a POLARstar OPTIMA plate reader (BMG LABTECH) on emptied plates at an excitation/emission (for eGFP) of 485/520 nm at 2500 gain setting.
Three chemical libraries the 355-member SelleckChem Kinase Inhibitor Library, the 1200-member Prestwick Chemical Library, and the 100,000-member ChemBridge library were used for the screening. The screening of the SelleckChem Kinase Inhibitor and the Prestwick libraries were performed at 10 and 100 μM each in duplicate. The screening of the ChemBridge library was conducted at 100 μM. […] The statistical criteria for a hit were fully described in Al-Mugotir et al.. Each hit was verified in triplicate at 10 and 100 μM.
The in vitro EC50 value of each hit was determined with FluorIA. The chemicals were serially diluted by two-fold increments from 0.030 to 500 μM and analyzed in triplicate with FluorIA. RAD52(1–303) was used as a positive control and buffer with DMSO was used as a negative control. Candidate SMIs with strong inhibition were purchased, and a 1D NMR analysis was carried out to verify their identities. The eleven candidates SMIs were purchased as follows: 5137134, 5246481, 52614577,5316833, 5373030, and 7623574 from Chembridge HIT2LEAD, 5989499 from Wuxi lab network, 5375405 from Aronis, quinacrine and mitoxantrone from Sigma Aldrich, and doxorubicin from LC labs. D-I03 was purchased from Molport. Their effectiveness in inhibiting the RPA:RAD52 PPI was confirmed after purchase with the FluorIA as described above (S1 Fig).
Supplementary file pone.0248941.s001.tif: S1 Fig Validation experiments of eleven hits with the FlourIA. Sixteen treatment concentrations were used (0.030–500 μM) increasing by two-fold increments of each molecule/drug obtained as a hit in HTS FluorIA. RAD52(1–303) without GFP-tag and buffer (including DMSO) only were used as controls. Percent inhibition was calculated as follows: [(RFUSMI—RFURAD52(1–303)) / (RFUDMSO—RFURAD52(1–303))]*100, where RFU is relative fluorescence unit. An average of triplicate measurements was used. The treatment points for quinacrine and doxorubicin beyond 125 μM were showing characteristics of aggregation and were not used. (TIF) Click here for additional data file.

The EC50 is the concentration at which the effect is half-maximal. On to `O=C1c2c(O)ccc(O)c2C(=O)c2c(NCCNCCO)ccc(NCCNCCO)c21` [Mitoxantrone, mitoxantrone], for which the EC50 came to 29.7 µM.

For the origin of these results see paper PMC8009417, “Selective killing of homologous recombination-deficient cancer cell lines by inhibitors of the RPA:RAD52 protein-protein interaction” (PLoS ONE, 2021).
